Measurements as given in patent US8962244B2, “Compounds for modulating RNA binding proteins and uses therefor” (University of Massachusetts, priority 2009, dated 2015).
Values joined by “and” are separate entries in the source; they are usually repeats but may differ in a detail not shown here. Equal entries are not always repeated.

Legend:
[1] = target: T1, MEX-5 (Caenorhabditis elegans, UniProt Q9XUB2); assay: Fluorescence polarization screening of MEX-5 binding to fluorescein-labeled TCR2 RNA; details: for remaining activity at 192 µM: 192 μM test compound, score = polarization relative to no-drug and no-protein controls, 0.25 = 75% inhibition, lowest score = greatest inhibition, read-out: MEX-5 score; for IC50: further screening as described above (fluorescence polarization), dose response
T1 construct: The fragment of mex-5 containing the TZF domain (amino acids 236-350) was amplified; made in house; host or cells: Escherichia coli JM109
T1 sequence (Q9XUB2 236-350): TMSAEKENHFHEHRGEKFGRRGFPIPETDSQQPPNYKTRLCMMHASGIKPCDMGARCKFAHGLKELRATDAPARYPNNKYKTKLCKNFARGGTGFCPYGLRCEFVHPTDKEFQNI
Description: The expression and purification of recombinant MEX-5 protein has previously been described in Pagano, J. M., Farley, B. M., McCoig, L. M. and Ryder, S. P. (2007) “Molecular basis of RNA recognition by the embryonic polarity determinant MEX-5;” J Biol Chem; 282, 8883-8894. The fragment of mex-5 containing the TZF domain (amino acids 236-350) was amplified from a commercially available ORFeome clone (Open Biosystems) and sub-cloned into the vector pMal-c (NEB), which encodes maltose binding protein as an N-terminal fusion. This construct is termed pMal-MEX-5 (236-350).
MEX-5 is expressed in Escherchia. coli JM109 liquid cultures grown at 37° C. Cultures were induced during mid log phase by the addition of 0.1 mM isopropyl 1-thio-β-D-galactopyranoside (IPTG) and allowed to grow for three hours. An amount of 100 μM zinc acetate (final concentration) was added at the time of induction. The pelleted cells were resuspended in lysis buffer (50 mM Tris pH 8.8, 200 mM NaCl, 2 mM DTT, EDTA free protease inhibitor tablet (Roche), 100 μM Zn(OAc)2) and lysed by sonication. The soluble protein was purified in three steps using standard chromatography methods: (1) amylose affinity (NEB), (2) Hi-TRAP-Q (GE Healthcare), and (3) Hi-TRAP-S (GE Healthcare). The Q buffer was composed of 50 mM Tris, pH 8.8, 20 mM-1500 mM NaCl, 2 mM DTT, and 100 μM Zn(OAc)2. The S buffer was composed of 50 mM MOPS, pH 6.0, 20 mM-1500 mM NaCl, 2 mM DTT, 100 μM Zn(OAc)2. The pure fractions, determined by coomassie-stained SDS-PAGE, were dialyzed into storage buffer (20 mM Tris, pH 8.0, 25 mM NaCl, 100 μM Zn(OAc)2, 2 mM DTT). The protein concentration was determined by measuring absorbance at 280 nm and the calculated extinction coefficient. The protein was stored at 50 μM concentration at 4° C.
All RNA oligonucleotides were chemically synthesized by Dharmacon or Integrated DNA Technologies. Upon arrival, each RNA was deprotected and stored according to the manufacturer's instructions. Prior to use, the RNA was resuspended in 10 mM Tris-HCl, pH 8.0, 0.1 mM EDTA, and the concentration determined by UV spectrophotometry using the calculated extinction coefficient at 260 nm based on the specific sequence. The sequence of the MEX-5 binding RNA (TCR2) is […] (SEQ ID NO:1). The POS-1 binding RNA (BMF018) is […] (SEQ ID NO:2). The MEX-3 binding RNA (SEQ 14) is […] (SEQ ID NO:3).
The RNA used for the small molecule screen was labeled at the 3′-end with fluorescein by Dharmacon during synthesis. In a few cases, follow up experiments were performed with post-synthetically labeled RNA. In this case, fluorescein 5-thiosemicarbazide (FTSC, Invitrogen) was used to 3′-end label each RNA after treatment with sodium periodate (see Reines, S. A. and Cantor, C. R. (1974) “New fluorescent hydrazide reagents for the oxidized 3′-terminus of RNA” Nucleic Acids Res. 1, 767-786). A representative 50 μl reaction consisted of 0.5 nanomoles RNA, 100 mM NaOAc, pH 5.1, and 5 nanomoles NaIO4. After the reaction was complete (90 minutes at room temperature), the sample was ethanol precipitated by adding 1 μl RNase free glycogen (Invitrogen 20 μg/μl), 1/20th volume of 5 M NaCl, and 2 volumes of 100% ice-cold ethanol. The resulting pellet was resuspended in 50 μl of 100 mM NaOAc, pH 5.1 containing 1 mM FTSC and was allowed to react overnight at 4° C. in the dark. The unreacted label was removed by ethanol precipitation with resuspension of the pellet in a small volume of TE, and purification over a Roche G-25 size exclusion spin column. The labeling efficiency is determined by calculating the ratio of fluorescein absorbance at 490 nm to RNA-fluorescein absorbance at 260 nm. Typical efficiencies are 60-80%.
The ability of MEX-5 to associate with RNA was monitored by fluorescence polarization using a victor V3 or victor V2V plate reader (Perkin Elmer) in 384-well FluoTrak microplates (Grenier). […]

[2] = target: T2, POS-1 (Caenorhabditis elegans, UniProt G5EF15); assay: Fluorescence polarization screening of POS-1 binding to fluorescein-labeled BMF018 RNA; details: for remaining activity at 192 µM: 192 μM test compound, score = polarization relative to no-drug and no-protein controls, 0.25 = 75% inhibition, lowest score = greatest inhibition, read-out: POS-1 score; for IC50: further screening as described above (fluorescence polarization), dose response
T2 construct: 6-his tag (N); made in house; host or cells: E. coli BL21 (DE3) Gold
T2 sequence (G5EF15 80-180): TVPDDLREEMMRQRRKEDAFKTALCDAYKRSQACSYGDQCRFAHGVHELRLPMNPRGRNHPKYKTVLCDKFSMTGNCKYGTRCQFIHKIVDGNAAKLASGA

[3] = tested on: MEX-3; assay: Fluorescence polarization screening of MEX-3 binding to fluorescein-labeled SEQ 14 RNA; details: 192 μM test compound; 80 nM MBP-MEX-3, no zinc acetate; lowest score = greatest inhibition
[4] = target: T1, MEX-5; assay: Dose response gel shift assay, MEX-5 with TCR2 RNA; format: binding; details: 120 nM MEX-5, 2-3 nM fluorescein labeled TCR2 RNA
Description: (§1) A further dose response assay was performed on select compounds of the invention as described below. A sub-saturating concentration of MEX-5 or POS-1 (120 nM) was equilibrated with limiting fluorescein labeled RNA (2-3 nM, TCR2 RNA or MEX-3 UTR fragment RNA respectively) in the presence of varying concentrations of compound. Following equilibration, the reactions were loaded onto a 5% slab polyacrylamide gel and subjected to electrophoresis for about 1 hour to separate protein-RNA complex from free RNA. The gel was scanned on a FUJI FLA-5000 imager, and the fraction of bound RNA determined by dividing the intensity of the bound RNA by the intensity of the bound RNA plus the free RNA. The […] was plotted as a function of compound concentration and fit to a sigmoidal dose response function in order to determine the IC50, the concentration that gives half maximal inhibition.

[5] = target: T2, POS-1; assay: Dose response gel shift assay, POS-1 with MEX-3 UTR fragment RNA; format: binding; details: 120 nM POS-1, 2-3 nM fluorescein labeled MEX-3 UTR fragment RNA
Description: as §1

[6] = tested on: Caenorhabditis elegans N2 strain worms; assay: C. elegans viability/sterility assay (gonad microinjection); format: in vivo
Description: Young adult worms with a single row of embryos were selected for microinjection. Each worm was mounted on a dried agarose padded coverslip in halocarbon oil. Varying concentrations of compound, or a DMSO control, were microinjected into each gonad arm of the worm using an inverted microscope with DIC optics. Injected worms were then allowed to recover for 2-3 hours at 15° C. Approximately 10-40 worms were injected per compound tested. Individual worms that survived microinjection were singled out onto new NGM agar plates and allowed to recover overnight at 15° C. The plates were moved to room temperature the next morning. At the end of the day, the adult worm was transferred to a new plate. The embryos laid on each plate were monitored for hatching and inspected for unusual phenotypes. Nematode fertility was estimated by counting the total number of progeny on both plates. Viability was estimated by monitoring the extent of hatching.

[7] = count per individual injected worm (Worm No. 1-6), Day 2

Structure (SMILES)	remaining activity at 192 µM [1] [%]	remaining activity at 192 µM [2] [%]	MEX-3 score [3]	IC50 [1] [µM]	IC50 [4] [µM]	IC50 [2] [µM]	IC50 [5] [µM]	other results
O=C(O)c1ccc(NC(=S)NC(=O)c2ccc(I)cc2)cc1 [AE]	8.11	3.61	0.1624					
COc1ccc(Cl)cc1C(=O)Nc1ccc(S(=O)(=O)Nc2nccs2)cc1 [BK]	18.4			540	110			
Sc1nnc(COc2cccc3ccccc23)n1-c1ccccc1 [BO]	19			75	120	16	33	
CCS(=O)(=O)Nc1ccccc1NS(=O)(=O)CC [BR]	19.9			39	78	820	150	
CC(=O)Oc1ccccc1-c1nc2s/c(=C3\C(=O)N(CC(N)=O)c4ccccc43)c(=O)n2n1 [C]	-2.09	-2.48		33	9.5	7	5.1	
COc1nnc(-c2ccc(C)c(S(=O)(=O)NCC3CCCO3)c2)c2ccccc12 (centres unmarked) [DD]		7.5				300	260	
O=C(CSc1nc2ccccc2s1)Nc1ccc(S(=O)(=O)Nc2nccs2)cc1 [DG]		10.9		160	170			
O=C1C2CC=C(Cl)CC2C(=O)N1c1nnc[nH]1 (centres unmarked) [DJ]		13.8		3.5	3.8			
COc1ccc(CCNC(=O)c2ccc(C(=O)NCCc3ccc(OC)c(OC)c3)nc2)cc1OC [EX]			0.0674					
CCOc1ccc(NS(=O)(=O)c2ccc(C)c(C(N)=O)c2)cc1 [EY]			0.08965					
O=[N+]([O-])c1cccc(/C(=N\O)Nc2nnc(-c3cccnc3)s2)c1 [EZ]			0.124					
COc1ccc(S(=O)(=O)Nc2ccccc2NS(=O)(=O)c2ccc(OC)cc2)cc1 [E]	-1.07	-1.62		1.5	2	0.32	0.17	Day 1 Hatchlings ([6]; count per individual injected worm (Worm No. 1-6), Day 1): 11 and 34 and 2 and 6 and 4 and 67; Day 2 Embryos [6, 7]: 0; Day 2 Hatchlings [6, 7]: 0; Day 1 Embryos ([6]; count per individual injected worm (Worm No. 1-6), unhatched embryos on plate, Day 1): 1 and 0 (4×) and 2; Effect on worm fertility ([6]; microinjection into each gonad arm, compared with DMSO controls): may sterilize worms at a stage prior to fertilization
Cc1ccc(C(CC(=O)N2CCCC2)c2ccco2)cc1 (centres unmarked) [FA]			0.2093					
CCOC(=O)c1sc(NC(=S)NC(=O)c2cc3ccccc3o2)c(C(=O)OCC)c1C [FB]			0.2585					
